Columns and labels:
CCRF-CEM = experiment: NCI human tumor cell panel: CCRF-CEM (Leukemia); format: cell-based
HL-60(TB) = experiment: NCI human tumor cell panel: HL-60(TB) (Leukemia); format: cell-based
K-562 = experiment: NCI human tumor cell panel: K-562 (Leukemia); format: cell-based
A549/ATCC = experiment: NCI human tumor cell panel: A549/ATCC (Non-Small Cell Lung Cancer); format: cell-based
NCI-H23 = experiment: NCI human tumor cell panel: NCI-H23 (Non-Small Cell Lung Cancer); format: cell-based; details: NCI-H23, read-out: Log10 GI50 (converted)
COLO 205 = experiment: NCI human tumor cell panel: COLO 205 (Colon Cancer); format: cell-based
SF-268 = experiment: NCI human tumor cell panel: SF-268 (CNS Cancer); format: cell-based
SNB-19 = experiment: NCI human tumor cell panel: SNB-19 (CNS Cancer); format: cell-based
SK-MEL-2 = experiment: NCI human tumor cell panel: SK-MEL-2 (Melanoma); format: cell-based
SK-MEL-28 = experiment: NCI human tumor cell panel: SK-MEL-28 (Melanoma); format: cell-based
SK-MEL-5 = experiment: NCI human tumor cell panel: SK-MEL-5 (Melanoma); format: cell-based
IGROV1 = experiment: NCI human tumor cell panel: IGROV1 (Ovarian Cancer); format: cell-based
OVCAR-5 = experiment: NCI human tumor cell panel: OVCAR-5 (Ovarian Cancer); format: cell-based
786-0 = experiment: NCI human tumor cell panel: 786-0 (Renal Cancer); format: cell-based
A498 = experiment: NCI human tumor cell panel: A498 (Renal Cancer); format: cell-based
CAKI-1 = experiment: NCI human tumor cell panel: CAKI-1 (Renal Cancer); format: cell-based
RXF-393 = experiment: NCI human tumor cell panel: RXF-393 (Renal Cancer); format: cell-based
TK-10 = experiment: NCI human tumor cell panel: TK-10 (Renal Cancer); format: cell-based
PC-3 = experiment: NCI human tumor cell panel: PC-3 (Prostate Cancer); format: cell-based
MCF7/ADR-RES = experiment: NCI human tumor cell panel: MCF7/ADR-RES (Breast Cancer); format: cell-based
MDA-MB-231/ATCC = experiment: NCI human tumor cell panel: MDA-MB-231/ATCC (Breast Cancer); format: cell-based; details: Homo sapiens, MDA-MB-231, MDA-MB-231/ATCC
T-47D = experiment: NCI human tumor cell panel: T-47D (Breast Cancer); format: cell-based; details: T47D
[1] = Selective cytotoxicity microculture assay, human renal carcinoma; details: human, SCI (selectively cytotoxicity index), GI50 (RPTEC)/GI50 (A-498)
NCI-H522 = experiment: NCI human tumor cell panel: NCI-H522 (Non-Small Cell Lung Cancer)
[2] = tested on: panel of sixty different human tumor cell lines; experiment: NCI human tumor cell panel: whole panel (mean graph summary)
[3] = read-out: Log10 GI50 (converted)
[4] = read-out: Log10 TGI (converted)

OCc1ccc(-c2ccc(-c3ccc[se]3)[se]2)[se]1 [compound 675246]
GI50 (CCRF-CEM; [3]): 3.16 µM | IC (TGI) (CCRF-CEM; [4]): 12.3 µM | GI50 (HL-60(TB); [3]): 5.75 µM | IC (TGI) (HL-60(TB); read-out: Log10 TGI): > 100 µM | GI50 (K-562; K562, K-562, read-out: Log10 GI50 (converted)): 0.372 µM | IC (TGI) (K-562; K562, K-562, read-out: Log10 TGI (converted)): 7.59 µM | GI50 (A549/ATCC; [3]): 10.5 µM | IC (TGI) (A549/ATCC; [4]): 22.4 µM | GI50 (NCI-H23): 13.2 µM | GI50 (COLO 205; COLO 205, read-out: Log10 GI50 (converted)): 1 µM | IC (TGI) (COLO 205; COLO 205, read-out: Log10 TGI (converted)): 4.07 µM | GI50 (SF-268; SF-268, read-out: Log10 GI50 (converted)): 4.07 µM | IC (TGI) (SF-268; SF-268, read-out: Log10 TGI (converted)): > 100 µM | GI50 (SNB-19; SNB-19, read-out: Log10 GI50 (converted)): 12.3 µM | IC (TGI) (SNB-19; SNB-19, read-out: Log10 TGI (converted)): 52.5 µM | GI50 (SK-MEL-2; SK-MEL-2, read-out: Log10 GI50 (converted)): 9.12 µM | IC (TGI) (SK-MEL-2; SK-MEL-2, read-out: Log10 TGI (converted)): 25.7 µM | GI50 (SK-MEL-28; SK-MEL-28, read-out: Log10 GI50 (converted)): 7.41 µM | IC (TGI) (SK-MEL-28; SK-MEL-28, read-out: Log10 TGI (converted)): 21.9 µM | GI50 (SK-MEL-5; SK-MEL-5, read-out: Log10 GI50 (converted)): 2.63 µM | IC (TGI) (SK-MEL-5; SK-MEL-5, read-out: Log10 TGI (converted)): 8.91 µM | GI50 (IGROV1; IGROV-1, IGROV1, read-out: Log10 GI50 (converted)): 0.0537 µM | IC (TGI) (IGROV1; IGROV-1, IGROV1, read-out: Log10 TGI (converted)): 2.24 µM | GI50 (OVCAR-5; OVCAR-5, read-out: Log10 GI50 (converted)): 0.182 µM | IC (TGI) (OVCAR-5; OVCAR-5, read-out: Log10 TGI (converted)): 25.1 µM | GI50 (786-0; 786-0, read-out: Log10 GI50 (converted)): 2.19 µM | IC (TGI) (786-0; 786-0, read-out: Log10 TGI (converted)): 5.25 µM | GI50 (A498; A498, read-out: Log10 GI50 (converted)): 0.0389 µM | IC (TGI) (A498; A498, read-out: Log10 TGI (converted)): 0.166 µM | GI50 (CAKI-1; CAKI-1, read-out: Log10 GI50 (converted)): 5.37 µM | IC (TGI) (CAKI-1; CAKI-1, read-out: Log10 TGI (converted)): 18.6 µM | GI50 (RXF-393; RXF-393, read-out: Log10 GI50 (converted)): 0.0209 µM | IC (TGI) (RXF-393; RXF-393, read-out: Log10 TGI (converted)): 0.0912 µM | GI50 (TK-10; TK-10, read-out: Log10 GI50 (converted)): 1.91 µM | IC (TGI) (TK-10; TK-10, read-out: Log10 TGI (converted)): 10.7 µM | GI50 (PC-3; PC-3, read-out: Log10 GI50 (converted)): 3.8 µM | IC (TGI) (PC-3; PC-3, read-out: Log10 TGI (converted)): 13.2 µM | GI50 (MCF7/ADR-RES; [3]): 5.13 µM | IC (TGI) (MCF7/ADR-RES; [4]): 46.8 µM | GI50 (MDA-MB-231/ATCC; [3]): 4.37 µM | IC (TGI) (MDA-MB-231/ATCC; [4]): 33.9 µM | GI50 (T-47D; [3]): 3.8 µM | IC (TGI) (T-47D; [4]): 15.1 µM | selectivity ratio [1]: > 1000 | GI50 (NCI-H522; NCI-H522, read-out: Log10 GI50 (converted)): 2.45 µM | IC (TGI) (NCI-H522; NCI-H522, read-out: Log10 TGI): 6.61 µM | GI50 ([2]; Homo sapiens, read-out: Log10 GI50, MG_MID, mean over the panel (converted)): 1.66 µM | CC50 ([2]; Homo sapiens, read-out: Log10 LC50, MG_MID, mean over the panel (converted)): 51.3 µM | Log10 TGI, MG_MID ([2]; mean over the panel): −4.91 | Log10 TGI, Delta ([2]; whole panel): 2.14 | Log10 TGI, Range ([2]; whole panel): 3.04

Source: US20040063662A1, “Selenophene anti-tumor agents” (priority 1996, published 2004)
